Key:
[1] = system: pancreatic lymphocyte of mouse; assay: Lymphocyte mixed culture reaction (3H-thymidine uptake, DNA synthesis); assay type: cell-based, BALB/C mouse; details: concentration 1 ng/mL; cultured 3 days, 3H-TdR uptake 6 hours
Method: Experiment 1: Lymphocyte mixed culture reaction.
The pancreatic cells of BALB/C mouse were regulated to a concentration of 2×10^6 cells/ml with a culture medium of 10% FCS RPMI 1640, respectively. These cells (100 ul/well) and a sample (10 ul/well) were plated in a 96 well round-bottomed plate and cultured for 3 days under the condition of 37° C. and 5% CO2. Then, 3H-thymidine (3H-TdR) was added in a dose of 0.5 uCi/well. After 6 hours, the cells were harvested and subjected to the measurement of the uptake of 3H-TdR by a liquid scintillation counter. Thus, the DNA synthesis of pancreatic lymphocyte of mouse […].

B16 mouse melanoma cells = assay: Tumor metastasis inhibitory activity against B16 mouse melanoma (lung nodules); assay type: in vivo, C57BL/6 mouse; details: p.o., lung surface nodules 14 days after B16 injection, vs control

SMILES | Increase of DNA synthesis (%) [1] | Inhibition of metastasis (%) (B16 mouse melanoma cells; dose 0.001 mg/kg) | Inhibition of metastasis (%) (B16 mouse melanoma cells; dose 1 mg/kg)
CCCCCCCCCCCCCCCCCCCCCCCCCC(=O)NC(CC[C@H]1OC(CO)[C@H](O)C(O)C1O)C(O)C(O)CCCCCCCCCCCCCC (stereo partly drawn) [Compound 1, (3′S,4′S,5′R)-3′-N-Hexacosanoylamino-4′,5′-dihydroxy-nonadecane-α-C-D-galactopyranoside] | 54.6% | 65.3% | 
CCCCCCCCCCCCCCCCCCCCCCCCCC(=O)NC(CS[C@H]1OC(CO)[C@H](O)C(O)C1O)C(O)C(O)CCCCCCCCCCCCCC (stereo partly drawn) [Compound 8, (2′S,3′S,4′R)-3′,4′-Dihydroxy-2′-N-hexacosanoylamino-octadecane-1′-thio-yl-α-C-D-galactopyranoside] | 35.4% |  | 80.8%
